The source of these data is US6242462A, “Pharmacological agents” (Eli Lilly and Company, priority 2000, dated 2001).

The target of test [1] is T1, human GluR1 (Homo sapiens, UniProt P42261).
T1 construct: expressed in transfected cells; host or cells: HEK293
Nature of the test: Binding: displacement of 3H AMPA on GluR1-expressing cells (Table 1). From the text: (§1) The selectivity of compounds acting at GluR5 receptors may be determined by measurement of activity at other AMPA and kainate receptors including receptor-ligand binding studies and whole-cell voltage clamp electro-physiological recordings of functional activity at human GluR1, GluR2, GluR3 and GluR4 receptors (Fletcher et al., 1995, Recept. Channels 3; 21-31), receptor-ligand binding studies and whole-cell voltage clamp electrophysiological recordings of functional activity at human GluR6 receptors (Hoo et al., Recept. Channels 2; 327-338) and whole-cell voltage clamp electrophysiological recordings of functional activity at AMPA receptors in acutely isolated cerebellar Purkinje neurons (Bleakman et al., 1996, Mol. Pharmacol. 49; 581-585) and other tissues expressing AMPA receptors (Fletcher and Lodge, 1996, Phannacol. Ther. 70; 65-89).
(§2) Cell lines (HEK293 cells) stably transfected with human GluR5 receptors were employed. Displacement of 3H AMPA by increasing concentrations of test compound was used on GluR1-4-expressing cells and 3H kainate (KA) on GluR5 and expressing cells. Estimated activity (Ki) in nM was as follows.
For orientation: Displacement assays read how much labelled ligand stays bound in the presence of the test substance.

The target of test [2] is T2, human GluR4 (Homo sapiens, UniProt P48058).
T2 construct: expressed in transfected cells; host or cells: HEK293
The experiment in a line: Binding: displacement of 3H AMPA on GluR4-expressing cells (Table 1).
Excerpt: as §1, §2

For test [3], the target named is T3, human GluR2 (Homo sapiens, UniProt P42262).
T3 construct: expressed in transfected cells; host or cells: HEK293
The experiment in a line: Binding: displacement of 3H AMPA on GluR2-expressing cells (Table 1). From the text:
(§3) Cell lines (HEK293 cells) stably transfected with human GluR5 receptors were employed. Displacement of 3H AMPA by increasing concentrations of test compound was used on GluR1-4-expressing cells and 3H kainate (KA) on GluR5 and expressing cells.

Test [4] addresses T4, human GluR3 (Homo sapiens, UniProt P42263).
T4 construct: expressed in transfected cells; host or cells: HEK293
Nature of the test: Binding: displacement of 3H AMPA on GluR3-expressing cells (Table 1).
Excerpt: as §1, §2

The target of test [5] is T5, human GluR6 (Homo sapiens, UniProt Q13002).
T5 construct: expressed in transfected cells; host or cells: HEK293
The experiment in a line: Binding: displacement of radioligand (3H kainate) on GluR6 (Table 1). To be noted: read-out: % displ, GluR6.
Excerpt: as §1, §2

The target in test [6] is T1, human GluR1. The experiment in a line: Patch-clamp electrophysiology, HEK293 cells stably transfected with human GluR1, vs 100 μM AMPA (Table 2). Type of test: cell-based.
Excerpt: as §1
(§4) Functional studies were carried out on HEK293 cells stably transfected with human GluR receptors and on acutely isolated dorsal root ganglion neurons (DRG) using patch-clamp technology (Bleakman et al., 1996, Mol. Pharmacol., 49, 581-585). IC50 values (μM) for test Compound A were estimated for GluR1-4 vs 100 μM AMPA and GluR5 and GluR6 vs 100 μM KA with the following results: […]
(Patch clamp records ionic current or voltage across a cell membrane.)

The target in test [7] is T3, human GluR2. Nature of the test: Patch-clamp electrophysiology, HEK293 cells stably transfected with human GluR2, vs 100 μM AMPA (Table 2). Type of test: cell-based.
Excerpt: as §1, §4

Test [8] has as its target T4, human GluR3. The experiment in a line: Patch-clamp electrophysiology, HEK293 cells stably transfected with human GluR3, vs 100 μM AMPA (Table 2). Type of test: cell-based.
Excerpt: as §1, §4

In test [9] the target is T2, human GluR4. Nature of the test: Patch-clamp electrophysiology, HEK293 cells stably transfected with human GluR4, vs 100 μM AMPA (Table 2). Type of test: cell-based.
Excerpt: as §1, §4

Test [10] deals with T5, human GluR6. Nature of the test: Patch-clamp electrophysiology, HEK293 cells stably transfected with human GluR6, vs 100 μM KA (Table 2). Type of test: cell-based.
Excerpt: as §1, §4

Test [11] deals with acutely isolated dorsal root ganglion neurons (DRG). Nature of the test: Patch-clamp electrophysiology, kainate induced current in acutely isolated dorsal root ganglion neurons (Table 2). In kind it is cell-based. The settings on record: Rattus norvegicus, DRG neuron, based on % inhibition of 30 μM kainate induced current. From the text: (§5) GluR5 receptor antagonists may be identified by radiolabelled ligand binding studies at the cloned and expressed human GluR5 receptor (Korczak et al., 1994, Recept. Channels 3; 41-49), by whole cell voltage clamp electro-physiological recordings of functional activity at the human GluR5 receptor (Korczak et al., 1994, Recept. Channels 3; 41-49) and by whole cell voltage clamp electro-physiological recordings of currents in acutely isolated rat dorsal root ganglion neurons (Bleakman et al., 1996, Mol. Pharmacol. 49; 581-585).
Functional studies were carried out on HEK293 cells stably transfected with human GluR receptors and on acutely isolated dorsal root ganglion neurons (DRG) using patch-clamp technology (Bleakman et al., 1996, Mol. Pharmacol., 49, 581-585). IC50 values (μM) for test Compound A were estimated for GluR1-4 vs 100 μM AMPA and GluR5 and GluR6 vs 100 μM KA with the following results:
*Based on % inhibition of 30 μM kainate induced current.

Test [12] concerns the target T6, human GluR5 (Homo sapiens, UniProt P39086). The experiment in a line: Selectivity at GluR5 over other ionotropic glutamate receptors (binding and electrophysiology). The settings on record: GluR5 vs other ionotropic glutamate receptors.
Target sequence in this assay (P39086 31-918): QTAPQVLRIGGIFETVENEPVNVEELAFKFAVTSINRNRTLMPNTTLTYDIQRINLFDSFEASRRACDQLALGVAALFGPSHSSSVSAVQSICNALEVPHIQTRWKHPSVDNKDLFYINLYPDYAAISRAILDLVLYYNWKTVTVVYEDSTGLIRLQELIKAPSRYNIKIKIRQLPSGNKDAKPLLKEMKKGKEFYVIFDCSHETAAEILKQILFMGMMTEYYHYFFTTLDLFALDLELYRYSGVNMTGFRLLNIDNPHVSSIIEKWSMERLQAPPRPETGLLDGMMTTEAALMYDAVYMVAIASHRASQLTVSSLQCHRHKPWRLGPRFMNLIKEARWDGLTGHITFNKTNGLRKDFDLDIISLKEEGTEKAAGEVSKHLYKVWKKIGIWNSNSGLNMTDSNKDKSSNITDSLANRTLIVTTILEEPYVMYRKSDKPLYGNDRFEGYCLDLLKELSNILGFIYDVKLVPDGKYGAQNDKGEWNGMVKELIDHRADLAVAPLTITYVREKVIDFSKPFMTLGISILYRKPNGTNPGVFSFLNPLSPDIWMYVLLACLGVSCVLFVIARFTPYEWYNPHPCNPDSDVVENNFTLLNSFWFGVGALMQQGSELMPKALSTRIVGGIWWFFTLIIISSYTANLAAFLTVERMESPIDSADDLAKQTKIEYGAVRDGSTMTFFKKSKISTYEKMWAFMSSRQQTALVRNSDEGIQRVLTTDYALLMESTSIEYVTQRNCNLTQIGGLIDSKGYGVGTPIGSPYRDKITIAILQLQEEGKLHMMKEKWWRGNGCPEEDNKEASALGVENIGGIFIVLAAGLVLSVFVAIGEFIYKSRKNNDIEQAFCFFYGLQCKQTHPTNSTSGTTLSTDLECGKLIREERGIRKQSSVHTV
For test [13], the target named is T6, human GluR5. The experiment in a line: Binding: displacement of 3H kainate on GluR5-expressing HEK293 cells (Table 1). More on the design: expressed in transfected cells; host or cells: HEK293.
Excerpt: as §3
Target sequence in this assay (P39086 31-905 isoform P39086-2 limits assumed): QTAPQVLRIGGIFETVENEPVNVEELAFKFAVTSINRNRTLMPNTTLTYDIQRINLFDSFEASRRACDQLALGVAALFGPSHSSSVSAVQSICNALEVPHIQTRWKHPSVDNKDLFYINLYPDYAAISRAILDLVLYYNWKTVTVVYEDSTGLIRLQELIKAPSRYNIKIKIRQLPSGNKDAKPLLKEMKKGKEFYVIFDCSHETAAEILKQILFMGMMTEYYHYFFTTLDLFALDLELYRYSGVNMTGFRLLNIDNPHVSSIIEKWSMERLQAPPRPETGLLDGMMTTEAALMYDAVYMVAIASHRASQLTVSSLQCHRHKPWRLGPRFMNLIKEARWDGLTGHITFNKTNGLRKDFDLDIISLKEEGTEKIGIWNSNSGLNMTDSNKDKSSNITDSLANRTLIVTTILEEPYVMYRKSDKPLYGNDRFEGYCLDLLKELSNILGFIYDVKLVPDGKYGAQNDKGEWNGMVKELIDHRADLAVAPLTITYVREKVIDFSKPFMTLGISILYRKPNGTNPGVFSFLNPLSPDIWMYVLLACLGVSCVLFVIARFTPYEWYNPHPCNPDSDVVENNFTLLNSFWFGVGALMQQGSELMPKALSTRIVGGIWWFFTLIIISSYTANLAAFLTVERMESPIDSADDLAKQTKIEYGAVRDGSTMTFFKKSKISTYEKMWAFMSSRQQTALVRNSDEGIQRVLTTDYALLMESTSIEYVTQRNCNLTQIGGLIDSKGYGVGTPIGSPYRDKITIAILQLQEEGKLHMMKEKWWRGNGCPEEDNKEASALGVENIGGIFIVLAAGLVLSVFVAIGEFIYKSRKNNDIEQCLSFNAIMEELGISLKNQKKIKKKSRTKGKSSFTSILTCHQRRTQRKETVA

Test [14] deals with T6, human GluR5. The experiment in a line: Patch-clamp electrophysiology, HEK293 cells stably transfected with human GluR5, vs 100 μM KA (Table 2). In kind it is cell-based. More on the design: expressed in transfected cells; host or cells: HEK293.
Excerpt: as §5, §4
Target sequence in this assay (P39086 31-905 isoform P39086-2 limits assumed): as above

For test [15], the system named is tail flick response. Nature of the test: Tail Flick Test in mice. Type of test: in vivo. The settings on record: subcutaneous, 3, 10, and 30 mg/kg. On the procedure: (§6) This well known test measures the effect of a test compound on the time taken for an animal to flick its tail out of a focused beam of light. In the test, a beam of light from a lamp is focused on a surface, and the lamp is then switched off. Treated and untreated (control) animals are restrained, with their tails positioned at the focal point of the beam of light from the lamp. The lamp is then switched on, and the time taken for the animal's tail to respond by moving is recorded.
(In general: In hot-plate and tail-flick tests a longer latency is read as antinociception.)

For test [16], the system named is tail flick response. The experiment in a line: Tail Flick Test in cynomolgous primates. In kind it is in vivo. The settings on record: oral, 0.03, 0.1, 0.3 and 3 mg/kg. The procedure:
as §6

The subject of test [17] is acetic acid induced writhing. Nature of the test: Acetic acid induced mouse writhing test. In kind it is in vivo, male CD-1 mice. To be noted: mice; 1, 3, 10 and 30 mg/kg; 0.5% acetic acid i.p. On the procedure: 3) Acetic acid induced mouse writhing test.
This test measures the ability of a test compound to reduce the amount of writhing induced by intraperitoneal injection of acetic acid in mice.
Doses of test compound or control are administered to male CD-1 mice. Each animal is then administered 0.5% acetic acid in a volume of […] intraperitoneally. The animals are then placed in individual plexiglas observation chambers and the total number of writhes (flattening of the abdominal wall and asymmetric stretching and extending of the body and hindlimbs) recorded between 5 and 10 minutes after acetic acid administration.

The test system of test [18] is pain. Nature of the test: Animal models of pain. To be noted: in vivo.

T1 sequence (P42261 19-906): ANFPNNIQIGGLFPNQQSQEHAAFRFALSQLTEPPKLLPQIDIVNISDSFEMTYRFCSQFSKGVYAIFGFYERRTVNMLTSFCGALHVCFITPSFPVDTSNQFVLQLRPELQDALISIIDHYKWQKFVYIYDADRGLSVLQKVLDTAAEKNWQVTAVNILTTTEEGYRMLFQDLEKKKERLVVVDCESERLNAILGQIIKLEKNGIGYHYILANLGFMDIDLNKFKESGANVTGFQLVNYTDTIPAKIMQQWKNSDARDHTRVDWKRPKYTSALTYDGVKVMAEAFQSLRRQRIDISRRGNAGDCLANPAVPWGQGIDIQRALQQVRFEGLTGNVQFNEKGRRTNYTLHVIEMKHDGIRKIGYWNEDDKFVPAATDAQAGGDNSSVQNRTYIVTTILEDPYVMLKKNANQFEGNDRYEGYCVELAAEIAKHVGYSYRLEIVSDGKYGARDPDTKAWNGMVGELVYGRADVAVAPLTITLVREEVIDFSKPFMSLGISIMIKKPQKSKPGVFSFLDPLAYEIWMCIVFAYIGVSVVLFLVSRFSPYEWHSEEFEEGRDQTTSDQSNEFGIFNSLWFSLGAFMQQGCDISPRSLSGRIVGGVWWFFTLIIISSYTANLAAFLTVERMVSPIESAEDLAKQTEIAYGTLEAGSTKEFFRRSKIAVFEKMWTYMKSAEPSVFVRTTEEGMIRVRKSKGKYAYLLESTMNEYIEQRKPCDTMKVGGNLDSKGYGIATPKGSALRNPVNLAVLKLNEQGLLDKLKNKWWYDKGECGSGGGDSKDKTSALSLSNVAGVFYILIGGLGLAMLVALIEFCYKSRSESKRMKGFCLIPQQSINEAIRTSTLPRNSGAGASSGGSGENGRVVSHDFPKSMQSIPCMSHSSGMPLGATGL
T5 sequence (Q13002 32-908): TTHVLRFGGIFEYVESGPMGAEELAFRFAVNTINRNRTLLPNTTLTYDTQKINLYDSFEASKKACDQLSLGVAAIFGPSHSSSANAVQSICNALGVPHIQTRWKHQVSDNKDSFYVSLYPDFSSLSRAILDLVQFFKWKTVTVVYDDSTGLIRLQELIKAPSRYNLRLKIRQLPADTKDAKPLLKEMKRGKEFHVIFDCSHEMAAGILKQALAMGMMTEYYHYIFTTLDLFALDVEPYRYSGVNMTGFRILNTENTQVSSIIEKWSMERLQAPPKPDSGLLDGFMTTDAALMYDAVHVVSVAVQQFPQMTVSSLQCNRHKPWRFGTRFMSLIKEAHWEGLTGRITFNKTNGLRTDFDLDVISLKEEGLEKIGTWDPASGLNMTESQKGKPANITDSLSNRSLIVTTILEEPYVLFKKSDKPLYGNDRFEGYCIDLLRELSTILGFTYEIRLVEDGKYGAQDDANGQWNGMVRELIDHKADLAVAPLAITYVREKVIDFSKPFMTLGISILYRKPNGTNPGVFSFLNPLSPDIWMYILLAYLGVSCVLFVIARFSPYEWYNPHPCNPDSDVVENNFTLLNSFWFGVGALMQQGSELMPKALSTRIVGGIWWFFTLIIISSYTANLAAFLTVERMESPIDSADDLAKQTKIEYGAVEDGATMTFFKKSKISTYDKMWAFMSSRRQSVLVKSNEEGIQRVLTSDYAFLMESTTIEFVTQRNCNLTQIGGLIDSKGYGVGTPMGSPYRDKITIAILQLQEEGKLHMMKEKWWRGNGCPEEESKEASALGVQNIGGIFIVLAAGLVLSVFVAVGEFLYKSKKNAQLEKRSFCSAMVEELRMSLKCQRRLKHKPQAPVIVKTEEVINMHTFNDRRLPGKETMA
T2 sequence (P48058 21-902): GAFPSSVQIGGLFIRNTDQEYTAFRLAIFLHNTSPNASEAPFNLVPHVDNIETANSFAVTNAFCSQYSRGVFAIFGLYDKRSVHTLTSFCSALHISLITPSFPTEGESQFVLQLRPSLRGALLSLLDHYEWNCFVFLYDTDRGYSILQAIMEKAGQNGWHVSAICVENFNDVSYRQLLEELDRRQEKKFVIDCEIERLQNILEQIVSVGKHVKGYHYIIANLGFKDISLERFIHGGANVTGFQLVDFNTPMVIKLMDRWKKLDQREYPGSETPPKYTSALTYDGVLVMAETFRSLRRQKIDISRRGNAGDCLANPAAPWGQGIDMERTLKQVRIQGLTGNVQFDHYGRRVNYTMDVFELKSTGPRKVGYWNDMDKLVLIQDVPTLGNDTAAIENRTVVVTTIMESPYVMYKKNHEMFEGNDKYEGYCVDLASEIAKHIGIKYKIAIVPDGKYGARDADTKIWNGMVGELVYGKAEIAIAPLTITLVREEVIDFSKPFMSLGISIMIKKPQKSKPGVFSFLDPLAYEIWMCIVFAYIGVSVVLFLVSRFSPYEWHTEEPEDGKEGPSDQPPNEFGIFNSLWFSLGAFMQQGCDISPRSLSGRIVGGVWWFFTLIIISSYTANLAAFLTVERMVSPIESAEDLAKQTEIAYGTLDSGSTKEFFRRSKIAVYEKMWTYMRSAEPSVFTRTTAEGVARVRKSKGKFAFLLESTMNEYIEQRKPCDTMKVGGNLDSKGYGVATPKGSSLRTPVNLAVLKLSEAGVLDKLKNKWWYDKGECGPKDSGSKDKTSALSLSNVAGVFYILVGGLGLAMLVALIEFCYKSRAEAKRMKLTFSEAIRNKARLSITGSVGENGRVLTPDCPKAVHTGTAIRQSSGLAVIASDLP

For `O=C(O)c1ccc(C[C@H]2CC[C@H]3CN[C@H](C(=O)O)C[C@H]3C2)cc1` (relative stereo) [C, 3SR, 4aRS, 6SR, 8aRS-6-(((4-carboxy)phenyl)methyl)-1,2,3-4,4a,5,6,7,8,8a-decahydroisoquinoline-3-carboxylic acid], the inhibition at 1000 µM in test [1] (at 1 mM, 3H AMPA) was 21%; in [2] (at 1 mM, 3H AMPA), 23%.

A word on the IC50: it is the point on the concentration scale where inhibition reaches its midpoint. Read a high IC50 as a need for much substance. In the case of `O=C(O)[C@@H]1C[C@H]2C[C@@H](COCc3nn[nH]n3)CC[C@H]2CN1` (relative stereo) [Compound A, 3SR, 4aRS, 6SR, 8aRS-6-[(1(2)H-tetrazol-5-yl)methoxy-methyl]decahydroisoquinoline-3-carboxylic acid], the “Estimated activity (Ki), GluR1” value in test [1] (displacement of 3H AMPA) is 150.686 µM. In addition, in test [3], the “Estimated activity (Ki), GluR2” value is 35.337 µM. For the same compound, the “Estimated activity (Ki), GluR3” value in test [4] is 47.793 µM. In test [2] (displacement of 3H AMPA), the “Estimated activity (Ki), GluR4” value was 31.606 µM. Moreover, the inhibition at 100 µM in test [5] was 6%. Further, the IC50 in test [6] is over 100 µM; in test [7], over 100 µM; in [8], over 100 µM; in test [9] it was over 100 µM; in test [10], over 100 µM; in [11] it was 0.6 µM. Also, in [14], the IC50 was found to be 3.9 ± 0.5 µM. Besides, the “selective GluR5 receptor antagonism” value in test [12] is recorded as “selective GluR5 receptor antagonists”. Further, the “Estimated activity (Ki), GluR5” value in test [13] is 3.061 µM.

`O=C(O)[C@@H]1C[C@H]2C[C@@H](COCc3nn[nH]n3)CC[C@H]2CN1` [B, 3S,4aR,6S,8aR-6-((((1H-Tetrazole-5-yl)methyl)oxy)methyl)-1,2,3,4,4a,5,6,7,8,8a-decahydroisoquinoline-3-carboxylic Acid]: the “response time (tail flick)” value in test [15] and in test [16] was “dose dependent increase in response time” in each case. For the same compound, the writhing result in [17] is listed as “dose dependent reduction in writhing”. Moreover, the “selective GluR5 receptor antagonism” value is on record as “selective GluR5 receptor antagonists” in test [12], “selective GluR5 antagonist” in test [12] (listed as (3S,4aR,6S,8aR)-6-[(1(2)H-tetrazol-5-yl)methoxymethyl]decahydroisoquinoline-3-ca) and “selective GluR5 antagonist” in [12] (listed as Example 1). Further, the “effectiveness in animal models of pain” value in [18] is on record as “effective in animal models of pain”. Moreover, the “Estimated activity (Ki), GluR5” value in test [13] is 5.823 µM.

Consider `O=C(O)c1ccc(C[C@H]2CC[C@H]3CN[C@H](C(=O)O)C[C@H]3C2)cc1` [D, 3S,4aR,6S,8aR-6-(((4-carboxy)phenyl)methyl)-1,2,3,4,4a,5,6,7,8,8a-decahydroisoquinoline-3-carboxylic acid], for which the IC50 in test [9] is over 100 µM; in test [10], over 100 µM; in test [11], 0.98 µM.
